SMILES strings stand for the structures.

In the assay the target is T1, 5-hydroxytryptamine receptor 3A (Homo sapiens, UniProt P46098).
T1 sequence (P46098 whole entry): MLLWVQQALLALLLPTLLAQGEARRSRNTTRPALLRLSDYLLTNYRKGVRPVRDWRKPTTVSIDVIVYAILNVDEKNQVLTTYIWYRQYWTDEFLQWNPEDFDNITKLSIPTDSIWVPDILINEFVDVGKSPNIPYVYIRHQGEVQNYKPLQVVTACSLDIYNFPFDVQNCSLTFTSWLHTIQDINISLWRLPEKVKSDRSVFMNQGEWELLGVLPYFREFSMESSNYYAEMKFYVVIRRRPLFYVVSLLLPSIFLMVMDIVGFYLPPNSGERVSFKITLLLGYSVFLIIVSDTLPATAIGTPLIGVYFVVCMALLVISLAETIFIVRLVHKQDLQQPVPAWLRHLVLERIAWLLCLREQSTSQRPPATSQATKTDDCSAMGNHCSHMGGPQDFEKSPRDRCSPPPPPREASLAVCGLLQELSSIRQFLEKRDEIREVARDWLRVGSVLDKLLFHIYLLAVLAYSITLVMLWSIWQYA
Nature of the assay: Radioligand Binding Assay: The relative affinity of the various compounds for the human 5-HT3 receptor was measured in a radioligand binding assay, using a scintillation proximity assay (SPA) format.
Take `Cn1nc2c3c(cccc31)C(=O)N([C@@H]1CN3CCC1CC3)CC2`: the Ki was determined as 2 nM.
Then `O=C1c2cccc3[nH]nc(c23)CCN1[C@@H]1CN2CCC1CC2`, with 4 nM; and `CCn1nc2c3c(cccc31)C(=O)N([C@@H]1CN3CCC1CC3)CC2`, with 1 nM.
Consider `CC(C)n1nc2c3c(cccc31)C(=O)N([C@@H]1CN3CCC1CC3)CC2`, for which the Ki turned out to be 2 nM.
As for `O=C1c2cccc3c2c(nn3Cc2ccccc2)CCN1[C@@H]1CN2CCC1CC2`, the inhibitory constant (Ki) was 2 nM.
`O=C1c2cccc3[nH]nc(c23)CCN1[C@H]1CN2CCC1CC2` came in with a Ki of 108 nM.
For the compound `O=C1c2cccc3c2c(cn3S(=O)(=O)c2ccccc2)CCN1[C@@H]1CN2CCC1CC2`, affinity was put at a Ki of 25 nM.

A word on the Ki: it is a dissociation constant, usually derived from enzyme kinetics or from competition with a known ligand.

Source of the values: ChEMBL document CHEMBL3638734, “5-HT3 receptor modulators, methods of making, and use thereof” (2013).
